Publication PMC5394417, “Investigating the molecular mechanism of positive and negative allosteric modulators in the calcium-sensing receptor dimer” (Scientific Reports, 2017)
Positions count from the first letter of the chain named. “And” between values parts separate entries of the source, which are not always exact repeats. Equal entries are not always repeated. Blank lines part the entries; values can stand above or below the compound they belong to.

Molecular target: T1, HA-S170A + myc-F801A (S170A:F801A heterodimer) (Rattus norvegicus, UniProt P48442, F801A/S170A)
T1 construct: mGluR5 signal peptide (N); expressed in transfected cells; host or cells: HEK293T
T1 sequence (P48442 20-1079 S170A): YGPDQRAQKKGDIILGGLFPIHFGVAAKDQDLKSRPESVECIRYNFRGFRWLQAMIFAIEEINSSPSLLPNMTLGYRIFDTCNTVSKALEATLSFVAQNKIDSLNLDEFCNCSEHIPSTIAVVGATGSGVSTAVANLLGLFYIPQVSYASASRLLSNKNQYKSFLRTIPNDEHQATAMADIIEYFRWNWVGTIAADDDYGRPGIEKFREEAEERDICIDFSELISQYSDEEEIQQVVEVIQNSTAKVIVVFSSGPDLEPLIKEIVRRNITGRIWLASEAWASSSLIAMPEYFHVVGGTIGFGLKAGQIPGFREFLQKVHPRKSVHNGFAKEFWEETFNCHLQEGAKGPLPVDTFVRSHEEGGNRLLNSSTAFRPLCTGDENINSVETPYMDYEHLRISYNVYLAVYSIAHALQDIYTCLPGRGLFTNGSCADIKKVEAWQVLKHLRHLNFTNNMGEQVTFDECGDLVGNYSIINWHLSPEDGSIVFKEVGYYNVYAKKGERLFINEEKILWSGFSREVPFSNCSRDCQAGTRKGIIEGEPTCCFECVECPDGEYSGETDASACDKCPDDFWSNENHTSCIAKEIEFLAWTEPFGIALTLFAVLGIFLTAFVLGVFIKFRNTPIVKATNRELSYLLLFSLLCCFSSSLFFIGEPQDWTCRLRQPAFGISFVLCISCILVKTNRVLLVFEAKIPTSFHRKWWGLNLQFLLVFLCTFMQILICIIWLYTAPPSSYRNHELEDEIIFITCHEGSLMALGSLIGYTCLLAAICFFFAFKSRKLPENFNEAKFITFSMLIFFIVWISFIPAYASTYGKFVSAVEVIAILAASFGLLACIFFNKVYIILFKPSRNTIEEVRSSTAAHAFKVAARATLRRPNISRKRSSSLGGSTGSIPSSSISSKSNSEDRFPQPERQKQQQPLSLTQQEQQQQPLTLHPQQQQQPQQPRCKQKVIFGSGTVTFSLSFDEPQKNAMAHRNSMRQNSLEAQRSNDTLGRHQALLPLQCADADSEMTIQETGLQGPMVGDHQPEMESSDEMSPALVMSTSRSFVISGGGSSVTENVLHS
T1 sequence (P48442 20-1079 F801A): T1 sequence (P48442 20-1079 S170A) with A151S, F782A
Assay: IP-One trans-activation assay, co-expression 1:1 in HEK293T
Assay type: cell-based
Protocol: Human embryonic kidney (HEK) 293T cells were cultured in DMEM supplemented with 10% dFBS and 1% P/S at 37 °C and 5% CO2. 48 h prior to assay, transient transfection was performed using Lipofectamine 2000 as the transfection reagent. White opaque 96-well culture plates (PerkinElmer, Waltham, MA, USA) were used for the ELISA and the TR-FRET dimerization assay, while clear tissue culture treated 96-well plates (Corning, Corning, NY, USA) were used for the IP-One assay. Both plate types were coated with poly-D-lysine before addition of cells and transfection mix. 0.25 μl/well of Lipofectamine 2000 were diluted in 25 μl/well of Opti-MEM and incubated at room temperature (RT) for 5 min. 0.03 μg/well of DNA was diluted in 25 μl/well of Opti-MEM, and subsequently mixed with the Lipofectamine 2000 dilution and incubated 20 min at RT before addition to the plates. Cell suspensions of 170.000 HEK293T cells/mL were prepared in complete growth medium and 100 μl/well (17.000 cells/well) was added to the plates, which were incubated for 48 h at 37 °C and 5% CO2 before performing assays.
Functional activity was measured using the IP-One assay, which is an IP1 accumulation assay. For agonist testing, ligands were prepared in final concentrations in ligand buffer (HBSS, 20 mM HEPES, pH 7.4 supplemented with 20 mM LiCl). Cells were washed once with 100 μl/well of assay buffer (HBSS, 20 mM HEPES, pH 7.4) and 50 μl/well of agonist solution was added after which plates were incubated at 37 °C for 30 min. Subsequently, ligand solutions were removed and cells were washed with 100 μl/well of assay buffer. Cell lysis was performed by addition of 30 μl/well of IP-One Conjugate & Lysis Buffer (Cisbio Bioassays, Codolet, France) and plates were incubated at RT for 30 min. Afterwards, 30 μl/well of assay buffer was added to dilute the cell lysate. 10 μl/well of cell lysate was transferred from the 96-well plate to a 384-well Optiplate and 10 μl/well of detection solution (Assay buffer + 2.5% of anti-IP1 antibody cryptate Terbium conjugate + 2.5% IP1-d2 conjugate (Cisbio Bioassays, Codolet, France)) was also added. The 384-well plate was incubated for 1 h at RT in dark before being measured on an EnVision plate reader (PerkinElmer, Waltham, MA, USA). Upon excitation at 340 nm, emission at 615 nm and 665 nm was measured, and the FRET ratio (665 nm/615 nm) was converted to IP1 concentrations by interpolating values from an IP1 standard curve generated from a provided IP1 calibrator (Cisbio Bioassays, Codolet, France). When testing allosteric modulators, cells were pre-incubated for 30 min at 37 °C with 50 μl/well of ligand buffer supplemented with allosteric modulator and a final concentration of 1% DMSO. Afterwards, the buffer solution was removed and 50 μl/well of agonist solution in ligand buffer supplemented with allosteric modulator and a final concentration of 1% DMSO was added. Plates were incubated for 30 min at 37 °C followed by one wash in 100 μl/well of assay buffer. Cell lysis and detection was performed as described above.

[1] = HA-S170A + myc-F801A trans-activation response, Ca^2+ alone

potentiation of Ca^2+-mediated response (S170A:F801A heterodimer, 0.05, 0.1 and 1 μM NPS R-568): concentration-dependent potentiation
Compound: COc1cccc([C@@H](C)NCCCc2ccccc2Cl)c1.Cl [NPS R-568, NPS R-568 hydrochloride]

EC50 [1]: 12.7 mM
Hill coefficient ± S.E.M. [1]: 2.69 ± 0.19
pEC50 ± S.E.M. [1]: 1.90 ± 0.03
Max ± S.E.M. (HA-S170A + myc-F801A, maximum trans-activation response normalized to maximum response of WT CaSR): 30% and 30 ± 1.9%
Compound: [Ca+2] [Ca^2+]

inhibition of Ca^2+-mediated response (S170A:F801A heterodimer, highest tested NPS 2143 concentration (5 μM)): full inhibition
Compound: CC(C)(Cc1ccc2ccccc2c1)NC[C@@H](O)COc1cccc(Cl)c1C#N.Cl [NPS 2143, NPS 2143 hydrochloride]
